IC50, inhibition and Ki data for 20 compounds are collected here from ChEMBL document CHEMBL5226284, “Small Molecule Inhibitors Targeting Biosynthesis of Ceramide, the Central Hub of the Sphingolipid Network” (J Med Chem, 2021).

The nature of assay [1]: Inhibition of rat liver microsome Sphingosine N-acyltransferase assessed as inhibition of [3H]sphingosine to [3H]ceramide conversion incubated for 2 hrs. The assay is classed as microsomes.
In assay [2] the test system is Neutral sphingomyelinase (Sus scrofa). In words: Inhibition of pig liver plasma membranes nSMase at 100 uM measured after 15 mins at 100 uM relative to control. Particulars: Plasma membrane.
For assay [3], the target named is T1, Sphingomyelin phosphodiesterase 2 (Rattus norvegicus, UniProt Q9ET64).
T1 sequence (Q9ET64 whole entry): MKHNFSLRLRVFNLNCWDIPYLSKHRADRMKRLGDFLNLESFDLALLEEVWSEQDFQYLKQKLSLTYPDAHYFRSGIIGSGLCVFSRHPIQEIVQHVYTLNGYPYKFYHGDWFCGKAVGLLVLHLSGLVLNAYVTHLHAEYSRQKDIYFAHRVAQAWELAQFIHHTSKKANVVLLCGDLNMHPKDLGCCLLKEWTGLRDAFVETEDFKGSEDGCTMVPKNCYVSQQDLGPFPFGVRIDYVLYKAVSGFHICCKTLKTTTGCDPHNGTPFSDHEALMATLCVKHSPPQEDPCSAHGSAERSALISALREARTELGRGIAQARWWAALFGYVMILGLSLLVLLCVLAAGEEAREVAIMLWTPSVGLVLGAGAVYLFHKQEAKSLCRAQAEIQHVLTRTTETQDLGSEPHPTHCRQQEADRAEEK
In words: Inhibition of rat brain microsomes nSMase assessed as inhibition constant. Set-up: species or system Microsome.

In assay [4] the target is T2, Sphingolipid delta(4)-desaturase DES1 (Rattus norvegicus, UniProt Q5XIF5).
T2 sequence (Q5XIF5 whole entry): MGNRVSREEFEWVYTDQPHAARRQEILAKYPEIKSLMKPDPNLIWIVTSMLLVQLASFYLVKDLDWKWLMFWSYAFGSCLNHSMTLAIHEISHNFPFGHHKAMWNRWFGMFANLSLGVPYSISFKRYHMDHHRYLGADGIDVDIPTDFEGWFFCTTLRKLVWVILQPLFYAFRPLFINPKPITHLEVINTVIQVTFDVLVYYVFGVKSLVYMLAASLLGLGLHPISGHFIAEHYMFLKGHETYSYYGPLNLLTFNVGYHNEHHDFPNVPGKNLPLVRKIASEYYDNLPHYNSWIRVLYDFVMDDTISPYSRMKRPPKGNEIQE
Briefly: Inhibition of rat liver microsome DES1 incubated for 1 hr fluorescence based analysis. The assay is classed as microsomes.

Assay [5] concerns the target T3, Ceramide synthase 2 (Homo sapiens, UniProt Q96G23).
T3 sequence (Q96G23 whole entry): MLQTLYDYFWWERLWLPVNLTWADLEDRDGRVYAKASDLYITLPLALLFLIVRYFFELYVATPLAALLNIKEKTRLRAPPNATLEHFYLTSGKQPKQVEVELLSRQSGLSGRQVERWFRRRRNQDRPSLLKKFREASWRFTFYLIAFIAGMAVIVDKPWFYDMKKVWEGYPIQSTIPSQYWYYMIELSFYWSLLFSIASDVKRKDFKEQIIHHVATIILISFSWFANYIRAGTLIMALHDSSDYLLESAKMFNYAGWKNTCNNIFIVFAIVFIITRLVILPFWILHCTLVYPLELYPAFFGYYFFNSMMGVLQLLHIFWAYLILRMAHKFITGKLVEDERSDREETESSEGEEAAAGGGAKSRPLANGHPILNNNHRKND
In words: Competitive inhibition of CerS2 in HPAC cells using DHSph as substrate by LC/MS/MS analysis. The assay is classed as cell-based.

Assay [6] deals with T3, Ceramide synthase 2. In words: Inhibition of CerS2 in HPAC cells using DHSph as substrate. The assay is classed as cell-based.
Assay [7] addresses T2, Sphingolipid delta(4)-desaturase DES1. In words: Inhibition of rat liver microsome DES1 assessed as inhibition constant incubated for 20 mins in presence of NADH by liquid scintillation counter method. The assay is classed as microsomes.
The target is the same in assay [8]. In words: Inhibition of rat liver microsome DES1 incubated for 20 min in presence of NADH by liquid scintillation counter method. The assay is classed as microsomes.
The target of assay [9] is T4, Sphingolipid delta(4)-desaturase DES1 (Homo sapiens, UniProt O15121).
T4 sequence (O15121 whole entry): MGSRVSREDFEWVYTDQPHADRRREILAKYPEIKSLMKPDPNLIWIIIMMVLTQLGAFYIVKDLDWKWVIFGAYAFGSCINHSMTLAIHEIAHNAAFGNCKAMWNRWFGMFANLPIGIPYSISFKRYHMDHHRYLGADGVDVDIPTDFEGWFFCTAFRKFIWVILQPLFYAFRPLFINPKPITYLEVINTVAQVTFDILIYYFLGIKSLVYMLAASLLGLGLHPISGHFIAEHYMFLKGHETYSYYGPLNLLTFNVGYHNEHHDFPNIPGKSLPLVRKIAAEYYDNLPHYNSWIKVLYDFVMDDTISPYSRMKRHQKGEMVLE
Briefly: Inhibition of DES1 (unknown origin).

A short description of assay [10]: Inhibition of bovine brain microsomes nSMase. Further details: species or system Bos taurus, Microsome.
Assay [11] in a line: Non-competitive inhibition of bovine brain microsomes nSMase assessed as inhibition constant. Further details: species or system Bos taurus, Microsome.
For assay [12], the target named is T1, Sphingomyelin phosphodiesterase 2. In words: Inhibition of rat brain nSMase. The assay is classed as tissue-based.
Assay [13] can be described thus: Inhibition of rat brain aSMase using HMU-PC as substrate incubated for 3 hrs by fluorescence based analysis. The assay is classed as tissue-based.
Assay [14] in a line: Competitive inhibition of rat brain aSMase assessed as inhibition constant. The assay is classed as tissue-based.
Assay [15] concerns the target Sphingomyelin phosphodiesterase 3 (Homo sapiens) (UniProt Q9NY59). In words: Inhibition of nSMase2 (unknown origin) at 50 uM relative to control.
The next assay addresses Acetylcholinesterase (Homo sapiens, UniProt P22303). In words: Inhibition of AChe (unknown origin).
The target of assay [16] is T2, Sphingolipid delta(4)-desaturase DES1. Briefly: Inhibition of rat liver microsome DES1 using N-octanoylsphinganine as substrate incubated for 30 mins. The assay is classed as microsomes.
For assay [17], the target named is T4, Sphingolipid delta(4)-desaturase DES1. In words: Inhibition of DES1 in human HGC-27 cell lysates. The assay is classed as subcellular.
Assay [18] has the same target. In words: Binding affinity to DES1 in human HGC-27 cell lysates assessed as inhibition constant. The assay is classed as subcellular.
A short description of assay [19]: Inhibition of rat plasma secretory SMase. The assay is classed as cell-free.
Assay [20] is described as follows: Mixed type inhibition of human recombinant glucocerebrosidase at pH 6.7.
Assay [21] is described as follows: Mixed type inhibition of human recombinant glucocerebrosidase at pH 4.3.
Assay [22] is described as follows: Mixed type inhibition of human recombinant glucocerebrosidase at pH 5.6.
A further assay addresses Ceramide synthase 6 (Homo sapiens, UniProt Q6ZMG9). Briefly: Inhibition of human CerS6.
Assay [23] deals with T3, Ceramide synthase 2. In words: Inhibition of human CerS2.
Another assay addresses Ceramide synthase 5 (Mus musculus, UniProt Q9D6K9). In words: Inhibition of mouse CerS5.
A further assay has as its target Ceramide synthase 4 (Homo sapiens, UniProt Q9HA82). In words: Inhibition of human CerS4.
The target of assay [24] is Ceramide synthase 2 (Mus musculus, UniProt Q924Z4). In words: Inhibition of mouse CerS2.
Assay [25] concerns the target Sphingomyelin phosphodiesterase (Homo sapiens, UniProt P17405). In words: Inhibition of recombinant human aSMase assessed as inhibition constant.
For assay [26], the target named is Sphingomyelin phosphodiesterase (Homo sapiens) (UniProt P17405). Briefly: Inhibition of recombinant human aSMase at 5 uM relative to control.
For assay [27], the target named is Sphingomyelinase C (Bacillus cereus) (UniProt P11889). In words: Inhibition of Bacillus cereus SMaseC at 100 uM relative to control.
In assay [28] the target is Sphingomyelin phosphodiesterase 2 (Mus musculus) (UniProt O70572). Briefly: Inhibition of nSMase in mouse Splenocyte at 1 uM relative to control. The assay is classed as cell-based.
Assay [29] is described as follows: Inhibition of Bacillus cereus nSMase.
In assay [30] the target is T4, Sphingolipid delta(4)-desaturase DES1. In words: Noncompetitive inhibition of DES1 in human HGC-27 cell lysates assessed as inhibition constant. The assay is classed as subcellular.

Sequence of Ceramide synthase 5 (Q9D6K9 whole entry): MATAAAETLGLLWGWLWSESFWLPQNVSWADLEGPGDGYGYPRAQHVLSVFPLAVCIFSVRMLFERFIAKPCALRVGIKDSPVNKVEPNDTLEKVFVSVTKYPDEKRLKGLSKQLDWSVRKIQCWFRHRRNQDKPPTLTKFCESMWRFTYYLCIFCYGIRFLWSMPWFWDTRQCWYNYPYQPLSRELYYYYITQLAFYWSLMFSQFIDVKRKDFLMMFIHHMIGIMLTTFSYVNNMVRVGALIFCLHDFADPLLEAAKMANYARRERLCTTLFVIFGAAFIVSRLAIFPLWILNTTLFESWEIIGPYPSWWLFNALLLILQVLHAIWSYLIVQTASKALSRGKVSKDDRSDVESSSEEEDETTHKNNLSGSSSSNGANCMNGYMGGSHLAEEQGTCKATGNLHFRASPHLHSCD
Sequence of Sphingomyelinase C (Bacillus cereus) (P11889 whole entry): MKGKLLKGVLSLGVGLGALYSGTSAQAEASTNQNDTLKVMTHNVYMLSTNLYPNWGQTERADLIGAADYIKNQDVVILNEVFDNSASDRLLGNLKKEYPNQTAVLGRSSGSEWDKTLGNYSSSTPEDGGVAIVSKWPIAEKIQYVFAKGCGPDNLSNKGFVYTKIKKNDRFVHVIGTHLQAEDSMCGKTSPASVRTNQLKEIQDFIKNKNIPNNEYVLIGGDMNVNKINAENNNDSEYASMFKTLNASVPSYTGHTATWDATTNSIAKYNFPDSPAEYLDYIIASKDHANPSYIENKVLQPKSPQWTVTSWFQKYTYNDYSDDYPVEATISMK
Sequence of Sphingomyelin phosphodiesterase 3 (Homo sapiens) (Q9NY59 whole entry): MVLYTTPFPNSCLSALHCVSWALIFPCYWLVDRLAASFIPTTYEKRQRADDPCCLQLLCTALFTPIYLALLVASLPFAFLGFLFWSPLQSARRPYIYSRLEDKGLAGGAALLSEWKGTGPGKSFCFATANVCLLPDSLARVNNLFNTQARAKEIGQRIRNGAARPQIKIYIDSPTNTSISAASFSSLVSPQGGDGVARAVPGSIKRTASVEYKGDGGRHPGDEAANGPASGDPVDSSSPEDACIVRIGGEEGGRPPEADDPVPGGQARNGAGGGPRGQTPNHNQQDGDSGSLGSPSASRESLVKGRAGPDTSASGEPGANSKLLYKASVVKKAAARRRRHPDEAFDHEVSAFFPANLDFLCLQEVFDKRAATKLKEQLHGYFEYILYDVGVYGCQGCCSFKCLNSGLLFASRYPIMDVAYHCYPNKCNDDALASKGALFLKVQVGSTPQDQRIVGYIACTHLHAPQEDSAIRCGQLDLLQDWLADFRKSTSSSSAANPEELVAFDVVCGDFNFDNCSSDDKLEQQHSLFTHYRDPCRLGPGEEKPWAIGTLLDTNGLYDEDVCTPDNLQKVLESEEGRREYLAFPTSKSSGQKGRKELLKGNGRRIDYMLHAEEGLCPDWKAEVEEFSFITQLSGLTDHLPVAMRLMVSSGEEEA
Sequence of Acetylcholinesterase (P22303 whole entry): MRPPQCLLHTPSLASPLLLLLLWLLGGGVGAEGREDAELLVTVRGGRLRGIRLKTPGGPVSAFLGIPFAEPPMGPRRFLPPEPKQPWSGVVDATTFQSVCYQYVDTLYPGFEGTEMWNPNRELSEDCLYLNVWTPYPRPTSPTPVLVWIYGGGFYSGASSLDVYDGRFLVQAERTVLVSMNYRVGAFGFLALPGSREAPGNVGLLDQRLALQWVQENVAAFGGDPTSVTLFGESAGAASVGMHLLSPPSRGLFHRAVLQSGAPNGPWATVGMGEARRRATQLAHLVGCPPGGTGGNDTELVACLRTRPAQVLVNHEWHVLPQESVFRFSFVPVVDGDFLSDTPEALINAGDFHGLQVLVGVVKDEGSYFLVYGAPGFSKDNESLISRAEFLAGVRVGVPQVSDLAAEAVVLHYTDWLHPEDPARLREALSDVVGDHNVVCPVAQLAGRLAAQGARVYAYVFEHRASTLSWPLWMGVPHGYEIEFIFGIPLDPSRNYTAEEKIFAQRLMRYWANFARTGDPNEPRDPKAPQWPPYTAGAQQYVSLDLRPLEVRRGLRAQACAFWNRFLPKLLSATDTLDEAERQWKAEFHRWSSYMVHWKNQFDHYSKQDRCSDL
Sequence of Sphingomyelin phosphodiesterase (P17405 whole entry): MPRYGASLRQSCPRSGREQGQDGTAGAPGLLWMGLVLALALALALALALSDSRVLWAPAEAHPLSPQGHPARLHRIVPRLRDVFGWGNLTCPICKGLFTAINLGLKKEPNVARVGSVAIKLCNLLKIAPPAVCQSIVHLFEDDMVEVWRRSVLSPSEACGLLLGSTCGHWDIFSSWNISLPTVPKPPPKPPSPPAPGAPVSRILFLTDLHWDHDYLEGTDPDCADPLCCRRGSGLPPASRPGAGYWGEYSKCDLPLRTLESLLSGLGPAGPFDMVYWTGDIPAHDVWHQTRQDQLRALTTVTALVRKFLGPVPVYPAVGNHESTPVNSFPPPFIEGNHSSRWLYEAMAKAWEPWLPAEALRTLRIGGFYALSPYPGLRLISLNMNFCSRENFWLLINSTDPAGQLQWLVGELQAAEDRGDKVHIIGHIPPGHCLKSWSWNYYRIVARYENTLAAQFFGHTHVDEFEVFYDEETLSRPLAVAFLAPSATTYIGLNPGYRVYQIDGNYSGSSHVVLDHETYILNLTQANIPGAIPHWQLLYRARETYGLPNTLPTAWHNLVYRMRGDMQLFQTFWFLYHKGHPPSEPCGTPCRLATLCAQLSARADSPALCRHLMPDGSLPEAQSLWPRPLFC
Sequence of Sphingomyelin phosphodiesterase (Homo sapiens) (P17405 whole entry): as above
Sequence of Ceramide synthase 2 (Mus musculus, UniProt Q924Z4) (Q924Z4 whole entry): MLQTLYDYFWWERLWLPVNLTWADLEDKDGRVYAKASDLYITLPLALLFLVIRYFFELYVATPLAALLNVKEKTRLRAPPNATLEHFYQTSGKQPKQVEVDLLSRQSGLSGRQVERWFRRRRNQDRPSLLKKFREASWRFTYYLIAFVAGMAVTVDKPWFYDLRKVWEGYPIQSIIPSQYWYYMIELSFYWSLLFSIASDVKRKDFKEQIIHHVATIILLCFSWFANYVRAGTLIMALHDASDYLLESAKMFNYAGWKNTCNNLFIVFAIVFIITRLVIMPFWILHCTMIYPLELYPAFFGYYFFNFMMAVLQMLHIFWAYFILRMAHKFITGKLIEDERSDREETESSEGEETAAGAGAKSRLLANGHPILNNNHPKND
Sequence of Ceramide synthase 4 (Q9HA82 whole entry): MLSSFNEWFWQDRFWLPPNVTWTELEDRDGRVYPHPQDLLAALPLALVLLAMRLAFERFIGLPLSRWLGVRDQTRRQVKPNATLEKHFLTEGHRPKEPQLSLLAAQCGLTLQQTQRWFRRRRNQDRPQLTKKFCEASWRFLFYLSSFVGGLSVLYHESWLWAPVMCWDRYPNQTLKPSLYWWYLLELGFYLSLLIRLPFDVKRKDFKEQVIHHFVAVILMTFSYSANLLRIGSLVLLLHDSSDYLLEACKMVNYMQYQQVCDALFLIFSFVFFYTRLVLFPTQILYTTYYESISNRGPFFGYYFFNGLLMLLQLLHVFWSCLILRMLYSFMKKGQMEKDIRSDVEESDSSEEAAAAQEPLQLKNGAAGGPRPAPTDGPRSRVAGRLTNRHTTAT
Sequence of Sphingomyelin phosphodiesterase 2 (Mus musculus) (O70572 whole entry): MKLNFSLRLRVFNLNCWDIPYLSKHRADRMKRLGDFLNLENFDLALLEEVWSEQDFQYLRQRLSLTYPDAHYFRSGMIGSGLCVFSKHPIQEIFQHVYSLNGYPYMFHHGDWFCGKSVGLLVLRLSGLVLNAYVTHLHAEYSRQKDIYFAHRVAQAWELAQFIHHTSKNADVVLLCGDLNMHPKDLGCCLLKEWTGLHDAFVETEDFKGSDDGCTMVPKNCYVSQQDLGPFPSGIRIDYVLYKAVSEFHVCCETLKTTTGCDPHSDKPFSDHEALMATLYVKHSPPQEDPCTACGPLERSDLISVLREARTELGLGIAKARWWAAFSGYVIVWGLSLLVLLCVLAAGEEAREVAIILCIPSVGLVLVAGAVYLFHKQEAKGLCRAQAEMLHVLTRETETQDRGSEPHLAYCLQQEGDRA
Sequence of Ceramide synthase 6 (Q6ZMG9 whole entry): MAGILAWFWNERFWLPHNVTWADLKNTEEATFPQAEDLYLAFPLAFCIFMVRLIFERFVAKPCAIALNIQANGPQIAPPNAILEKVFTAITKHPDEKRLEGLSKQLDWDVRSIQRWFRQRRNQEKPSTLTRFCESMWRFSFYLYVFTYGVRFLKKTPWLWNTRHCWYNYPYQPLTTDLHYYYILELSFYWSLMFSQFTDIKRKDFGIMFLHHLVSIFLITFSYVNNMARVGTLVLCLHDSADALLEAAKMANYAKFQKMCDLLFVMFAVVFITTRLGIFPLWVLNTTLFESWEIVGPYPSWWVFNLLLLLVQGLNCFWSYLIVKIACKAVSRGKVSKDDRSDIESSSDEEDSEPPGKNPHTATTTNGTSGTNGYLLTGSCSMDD

As to `CCCC[C@@H](C)[C@@H](OC(=O)C[C@@H](CC(=O)O)C(=O)O)[C@H](C[C@@H](C)C[C@H](O)CCCC[C@@H](O)C[C@H](O)[C@H](C)N)OC(=O)C[C@@H](CC(=O)O)C(=O)O`, in assay [1], the IC50 stood at 0.1 µM.

Take `COc1c(O)c(C)c(C/C=C(\C)CC/C=C(\C)CC/C=C(\C)CC/C=C(\C)CC/C=C(\C)CC/C=C(\C)CC/C=C(\C)CC/C=C(\C)CC/C=C(\C)CCC=C(C)C)c(O)c1OC`: the inhibition in assay [2] was over 90%.

Consider `COc1cc(O)c(C(=O)O)c(-c2cc(O)c(O)cc2C)c1` [ALTENUSIN], for which the Ki in assay [3] was determined as 20 µM.

Regarding `CCCCCCCCCCCCCSC[C@@H](O)[C@H](CO)NC(=O)CCCCCCC`, it took 8.2 µM to reach half-maximal inhibition in assay [4] (IC50).

At Ceramide synthase 2 [5], `CCCCCCCCc1ccc(CCC(N)(CO)CO)cc1` [FINGOLIMOD] registered a Ki of 2.15 µM. The same compound gave an IC50 against Ceramide synthase 2 [6] of 6.4 µM.

Turning to `CC1=C(/C=C/C(C)=C/C=C/C(C)=C/C(=O)Nc2ccc(O)cc2)C(C)(C)CCC1` [FENRETINIDE], the Ki in [7] worked out at 8.28 µM. Also, the IC50 is 2.32 µM in assay [8] and 0.1 µM in [9].

With `CCCCCCCCCCCCCCCC(=O)N[C@H](CC(F)(F)P(=O)(O)O)[C@@H](O)c1ccccc1`, half-maximal inhibition in [10] (IC50) required 3.3 µM. For the same compound, the Ki in assay [11] is 1.6 µM.

In [12], `O=C(/C=C/c1ccc(/C=C/C(=O)Nc2ccc(C3=NCCN3)cc2)cc1)Nc1ccc(C2=NCCN2)cc1` returned an IC50 of 1 µM.

`CCCCCCCCCCCCOS(=O)(=O)O[C@@H]1[C@H](O)[C@H](OP(=O)(O)O)[C@@H](O)[C@H](OP(=O)(O)O)[C@H]1O` had an IC50 in assay [13] of 0.9 µM. Also, the Ki in assay [14] was 0.42 µM.

`CN1c2ccc(OC(=O)Nc3ccccc3)nc2[C@]2(C)CCO[C@H]12` registered an inhibition in assay [15] of 60%.

With `CN1c2ccc(OC(=O)Nc3ccncc3)cc2[C@]2(C)CCO[C@H]12`, inhibition at Acetylcholinesterase was half-maximal at 7 µM (IC50).

As for `CCCCCCCCCCCCCC1=C([C@@H](O)[C@H](CO)NC(=O)CCCCCCC)C1`, the results for the Ki in [16] and in [18] were 6 µM and 0.022 µM, respectively. Also, the IC50 in [17] is 0.052 µM.

The compound `COc1cc([C@H]2Oc3cc(O)cc(O)c3C[C@H]2OC(=O)c2cc(O)c(O)c(O)c2)cc(O)c1O` displayed an IC50 in [19] of 1.7 µM.

Turning to `Nc1c(Br)cc(Br)cc1CN[C@H]1CC[C@H](O)CC1` [AMBROXOL], the values for the IC50 in assay [20], in assay [21] and in assay [22] were 8.1 µM, over 1100 µM and 31 µM, respectively.

Consider `C[C@@](N)(CO)CCc1ccc(OCc2ccc(Cl)c(Cl)c2)cc1`, for which the IC50 against Ceramide synthase 6, against Ceramide synthase 2 [23], on Ceramide synthase 5, against Ceramide synthase 4 and on Ceramide synthase 2 [24] was 7 µM each time.

As to `CCCCCCCC(=O)OC[C@H](COP(=O)(O)O[C@@H]1[C@H](O)[C@H](OP(=O)(O)O)[C@@H](O)[C@H](OP(=O)(O)O)[C@H]1O)OC(=O)CCCCCCC`, the Ki in assay [25] turned out to be 0.53 µM. The compound also registered an IC50 in [13] of 0.93 µM. Also, in assay [26], the inhibition was over 90%.

`CCCCCCCCCCCCC/C=C/[C@@H](OCc1cccc(-c2ccccn2)n1)[C@H](CO)NC(=O)CCCCC` returned an inhibition in [27] of 20%.

In [28], `N=C(N)N/N=C/c1ccc(Oc2cccc(OCc3ccccc3)c2)cc1` returned an inhibition of 80%.

For `O=c1[nH]c(=S)[nH]c(-c2ccccc2)c1Cc1c(O)ccc2ccccc12` [CAMBINOL], inhibition in assay [29] was half-maximal at 5 µM (IC50).

Regarding `Oc1ccc(Nc2nc(-c3ccc(Cl)cc3)cs2)cc1`, the Ki in assay [30] was 0.3 µM.
